Assay results as given in patent publication US20210322327A1, “EXTRACELLULAR VESICLES COMPRISING STING-AGONIST” (Codiak BioSciences, Inc., priority 2018, published 2021).

How the values were obtained:
[1] = system: human peripheral blood mononuclear cells (PBMCs); experiment: IFNβ production in PBMCs treated with exosome-encapsulated or free STING agonist; type: cell-based; settings: free STING agonists, human PBMCs overnight
Method: Exosome-encapsulated STING agonist and free STING agonist were tested for activity in human peripheral blood mononuclear cells (PBMCs). PBMCs were isolated from fresh human blood by centrifugation over a layer of Lymphoprep at 1000×g for 15 minutes. The resulting buffy coat was washed in PBS and counted. PBMCs were plated in 96-well U-bottom plates. Titrations of the exosome-encapsulated (Exo-STING agonist) or free STING agonist were prepared in a separate U-bottom plate to perform dose-response studies. The exosome-encapsulated or free STING agonist was added to the PBMCs and incubated at 37° C. overnight. General activation of PBMCs by the STING agonist was detected by measuring the amount of IFNβ in the supernatant. […] To understand which cell types in PBMCs are differentially affected by Exo-STING agonist, monocyte and dendritic cell activation was measured. […] Monocytes were robustly activated by the STING agonist alone with over 90% becoming activated at micromolar concentrations of the agonist. […]
HEK293SF cells overexpressing PTGFRN were grown in shake flasks and the resulting exosomes were purified by Optiprep™ density gradient ultracentrifugation as described in the Methods. […] Loading was quantified as described in Example 1. […] Activation of PBMCs by the STING agonists was detected by measuring the amount of IFNβ in the supernatant. […]

[2] = system: B16F10 murine melanoma cells; experiment: Dual flank B16F10 model, injected and contralateral tumors; type: in vivo, C57BL/6 mice
From the text: In addition, activation of the STING pathway induces the upregulation of immune pathway checkpoints, which subsequently reduce T-cell-mediated cell killing, and thus moderate the effects of STING pathway agonism as a therapeutic rationale (Cell Rep. 2015 May 19; 11(7):1018-30). To test both hypotheses, C57BL/6 mice were inoculated subcutaneously with 1×10^6 and 5×10^5 B16F10 murine melanoma cells into right and left flank of mice, respectively (n=5 mice per group). Seven, ten, and thirteen days post-inoculation, the tumor at right flank were injected intratumorally with exosomes, 20 μg of free 3-3 cAIMPdFSH, 0.1 μg of free 3-3 cAIMPdFSH, or 0.1 μg 3-3 cAIMPdFSH loaded in PTGFRN-overexpressing exosomes, with a control antibody (α-IgG; 10 mg/kg; BioLegend, Catalog #400559, Clone RTK3758) or an antagonistic antibody against PD-1 (a PD-1; 10 mg/kg; BioLegend, Catalog #114111, Clone RMPI-14). Antibodies were injected intraperitoneally. Tumor volumes were measured daily until day 21, and animals were sacrificed when tumor volume reached 2000 mm^3.

[3] = system: ovalbumin (OVA)-reactive T-cells; experiment: OVA-reactive memory T-cells by tetramer flow cytometry; type: in vivo, C57BL/6 mice; settings: six days
Method: STING pathway agonism in dendritic cells enhances antigen presentation, IFNβ production, and recruits CD8+ memory T-cells to elicit a durable adaptive immune response. To determine whether Exo STING could induce a memory T-cell response to a defined antigen, an antigen-specific T-cell response study was carried out using purified ovalbumin (OVA). C57BL/6 mice were injected intraperitoneally with 200 μg OVA mixed with either PBS, 20 μg ML RR-S2, 0.2 μg ML RR-S2, or 0.2 μg ML RR-S2 loaded in PTGFRN-overexpressing exosomes (n=4-10 mice per group). Six days post-injection, spleens and mesenteric lymph nodes were collected, homogenized to a single-cell suspension, and live lymphocytes were enriched by density centrifugation. Isolated lymphocytes were analyzed by flow cytometry by measuring binding to immobilized tetrameric MHC class I bound to the OVA peptide SIINFEKL and phycoerythrin (PE) (iTAg Tetramer/PE—H-2 OVA; MBL®, Code #T03000). OVA-reactive memory T-cells were quantified by gating on PE, CD44, and CD8 positivity.

SMILES | IFNβ induction [1] | injected tumor growth ([2]; 0.1 μg free + IgG or Anti-PD1) | contralateral (not injected) tumor ([2]; 20 μg free) | contralateral tumor reduction with anti-PD1 ([2]; 20 μg free + anti-PD-1 10 mg/kg IP) | injected tumor growth ([2]; 20 μg free, regardless of anti-PD1) | OVA-reactive T-cells in spleen and mesenteric lymph nodes ([3]; 0.2 μg IP with 200 μg OVA) | OVA-reactive T-cells in spleen and mesenteric lymph nodes ([3]; 20 μg IP with 200 μg OVA)
Nc1ncnc2c1ncn2[C@@H]1O[C@@H]2COP(=O)(S)O[C@H]3[C@@H](F)[C@H](n4cnc5c(=O)[nH]cnc54)O[C@@H]3COP(O)(=S)O[C@H]2[C@H]1F (some centres unmarked) [3-3 cAIMPdFSH, 3′3′-cAIMPdFSH] | induced IFNβ to a similar extent | moderately potentiated | significant tumor reduction | more strengthened with anti-PD1 combination | Almost completely eliminated | – | –
Nc1ncnc2c1ncn2[C@@H]1O[C@@H]2COP(O)(=S)O[C@@H]3C(O)[C@@H](COP(O)(=S)O[C@H]2[C@H]1O)O[C@H]3n1cnc2c(N)ncnc21 (some centres unmarked) [ML RR-S2 CDA] | induced IFNβ to a similar extent | – | – | – | – | no activity in the spleen and only a modest response in mesenteric lymph nodes | A greater proportion of OVA-reactive T-cells
